Non-standard residues stand in square brackets, D forms with d. No end group written: not given here. Nle = CCCC[C@H](N)C(=O)O
Assays:
[1] = tested on: reconstructed human pigmented epidermis (RHPE); assay: In vitro repigmentation assay in reconstructed human pigmented epidermis (RHPE), without irradiation; assay type: cell-based; conditions: A 3.0 ppm
Protocol: (§1) For assessing the repigmentation effect, a reconstructed epidermis model was used, namely, based on adding melanocytes and keratinocytes on a polycarbonate filter (SkinEthic® RHPE, available from the company Episkin).
(§2) Sample tissues were treated with the test products for 6 days (from day1 to day6). After each dosing, the samples were incubated at 37° C., and melanin extraction was performed after 6 days of treatment (at day7). Untreated samples were also included in the assay as controls. An evaluation of cell viability was also performed.
(§3) After treatment, melanin extraction was performed by plunging each sample filter into 800 μl of Solvable® (Perkin Elmer) and heating at 63° C. overnight. The optical density of the supernatants was measured on 300 μl extract at 405 nm using synthetic melanin as reference. 6 samples were used for each treatment and the mean value was calculated.
(§4) For each of the treatments the increase in the amount of melanin generated versus the control (0) was calculated. For analysing a possible synergistic effect, the experimental increase in melanin in the combined treatment (A+B) was compared to the theoretical increase to be expected if a simple additive effect were obtained.
Another in vitro repigmentation assay was performed using the same reconstructed epidermis model and the same procedure as disclosed in Example 1. In this case, the assay was performed without irradiation.
In this example, the same reconstructed epidermis model was used, namely, based on adding melanocytes and keratinocytes on a polycarbonate filter (SkinEthic® RHPE, available from the company Episkin), using the same protocol disclosed in Example 1.

[2] = tested on: reconstructed human pigmented epidermis (RHPE); assay: In vitro repigmentation assay in reconstructed human pigmented epidermis (RHPE), samples irradiated; assay type: cell-based; conditions: Example 1; irradiated with 150 J/m^2 at 300 W/m^2 on day2, day3, day4; A 3.0 ppm, B 0.4 ppm, A + B 1.5 ppm + 0.2 ppm (7.5:1)
Protocol: as §1, §2, §3
Another analogous assay, with the same treatments, was performed but simultaneously irradiating the samples. In this second assay, the samples were irradiated with 150 J/m^2 at 300 W/m^2 three times on consecutive days (on day2, day3, and day4 of the assay).
as §4

[3] = Example 4, D 1.2 ppm, A + D 1.5 ppm + 0.6 ppm (2.5:1)
[4] = Example 4, D 1.2 ppm, A + D 1.5 ppm + 0.6 ppm (2.5:1) in culture medium
[5] = Example 1, without irradiation, 6 days of treatment, extraction at day7, B 0.4 ppm, A + B 1.5 ppm + 0.2 ppm (7.5:1) in culture medium
[6] = Example 1, without irradiation, 6 days of treatment, B 0.4 ppm, A + B 1.5 ppm + 0.2 ppm (7.5:1)
[7] = Example 3, C 0.1 ppm, A + C 1.5 ppm + 0.05 ppm (30:1)
[8] = Example 3, C 0.1 ppm, A + C 1.5 ppm + 0.05 ppm (30:1) in culture medium

Q: What does the source list for palmitoyl-prolil-proline [D]?
A: Melanin increase vs. control [1, 3]: 0.48 µg; Melanin [1, 4]: 32.49 µg

Q: Which Melanin [1, 5] does the source give for FHWRYPLPLPGQ (MIA inhibitor) here?
A: Its Melanin is 34.39 µg.

Q: What about the “Melanin increase vs. control” value [1, 6] of the same substance?
A: The value was 1.29 µg.

Q: And the “Melanin increase vs. control” value [1, 7]?
A: The value was 0.11 µg.

Q: And the Melanin [1, 8]?
A: The Melanin was 36.63 µg.

Q: And the “Melanin increase vs. control” value [1, 3]?
A: The value was 1.33 µg.

Q: And the Melanin [1, 4]?
A: The Melanin was 33.34 µg.

Q: And the Melanin [2]?
A: Its Melanin is 36.07 µg.

Q: What about the “Melanin increase vs. control” value [2] of the same substance?
A: The value was 1.35 µg.

Q: With His-DPhe-Arg-Trp (H[dF]RW) [C] as the substance, how does the “Melanin increase vs. control” value [1, 7] read?
A: Its value is 1.93 µg.

Q: What about the Melanin [1, 8] of the same substance?
A: Its Melanin is 38.45 µg.

Q: Which results are given for “Nle-Ala-His-DPhe-Arg-Trp (Ac-[Nle]AH[dF]RW) [B]”?
A: Melanin [1, 5]: 37.31 µg; Melanin increase vs. control [1, 6]: 4.21 µg; Melanin [2]: 38.07 µg; Melanin increase vs. control [2]: 3.35 µg
